Data published in patent US20160166565A1, “TREATMENT OF MULTIPLE SCLEROSIS WITH COMBINATION OF LAQUINIMOD AND FLUPIRTINE” (Teva Pharmaceutical Industries, Ltd., priority 2013, published 2016).
Read-outs that look alike come from different tables or passages of the source.

System: MOG-induced EAE Mice
Test: MOG-induced EAE in mice, laquinimod alone or in combination with flupirtine
Type: in vivo, mice (C57BL/6)
Settings: oral gavage qd, Day 1 to 30; for inhibition at 30 mg/kg: Mus musculus, vs vehicle
[1] = 0.5% MC + Flupirtin 30 mg/kg/day

Q: Which results are given for `CCOC(=O)Nc1ccc(NCc2ccc(F)cc2)nc1N` [Flupirtin, ethyl {2-amino-6-[(4-fluorobenzyl)amino]pyridin-3-yl}carbamate]?
A: Duration [1]: 17.0 days; GMS value (group mean score) [1]: 1.9; INC (Incidence) [1]: 15/15; MMS value (mean maximal score) [1]: 3.1; MORT (Mortality) [1]: 0/15; Onset [1]: 13.3 days; inhibition at 30 mg/kg (0.5% MC + Flupirtin 30 mg/kg/day, read-out: INH 1 (percent inhibition according to incidence)): 0%; inhibition at 30 mg/kg (0.5% MC + Flupirtin 30 mg/kg/day, read-out: INH 2 (percent inhibition according to MMS)): 11.4%; inhibition at 30 mg/kg (0.5% MC + Flupirtin 30 mg/kg/day, read-out: INH 3 (percent inhibition / activity according to GMS)): 17.4%

Q: `CCN(C(=O)c1c(O)c2c(Cl)cccc2n(C)c1=O)c1ccccc1` [LAQ, 5-chloro-N-ethyl-4-hydroxy-1-methyl-2-oxo-N-phenyl-1,2-dihydroquinoline-3-carboxamide] was tested. Which “Duration” value (LAQ 1 mg/kg/day + 0.5% MC) did it give?
A: 16.0 days

Q: And the “GMS value (group mean score)” value (LAQ 1 mg/kg/day + 0.5% MC)?
A: 1.9

Q: What about the “INC (Incidence)” value (LAQ 1 mg/kg/day + 0.5% MC) of the same compound?
A: 15/15

Q: What about the “MMS value (mean maximal score)” value (LAQ 1 mg/kg/day + 0.5% MC) of the same compound?
A: 3.4

Q: What about the “MORT (Mortality)” value (LAQ 1 mg/kg/day + 0.5% MC) of the same compound?
A: 0/15

Q: And the “Onset” value (LAQ 1 mg/kg/day + 0.5% MC)?
A: 14.8 days

Q: And the “Duration” value (LAQ 5 mg/kg/day + 0.5% MC)?
A: 14.7 days

Q: What about the “GMS value (group mean score)” value (LAQ 5 mg/kg/day + 0.5% MC) of the same compound?
A: 1.6

Q: What about the “INC (Incidence)” value (LAQ 5 mg/kg/day + 0.5% MC) of the same compound?
A: 14/15

Q: What about the “MMS value (mean maximal score)” value (LAQ 5 mg/kg/day + 0.5% MC) of the same compound?
A: 2.9

Q: And the “MORT (Mortality)” value (LAQ 5 mg/kg/day + 0.5% MC)?
A: 0/15

Q: What about the “Onset” value (LAQ 5 mg/kg/day + 0.5% MC) of the same compound?
A: 15.0 days
